The source made the active and inactive calls. The rule behind the calls is not given here.
What was measured:
Androgen receptor = biological target: T1, Androgen receptor (Homo sapiens, UniProt P10275); assay: Anti-androgenic activity at androgen receptor (unknown origin) expressed in HEK293 cells by BRET assay; format: cell-based
T1 sequence (P10275 whole entry): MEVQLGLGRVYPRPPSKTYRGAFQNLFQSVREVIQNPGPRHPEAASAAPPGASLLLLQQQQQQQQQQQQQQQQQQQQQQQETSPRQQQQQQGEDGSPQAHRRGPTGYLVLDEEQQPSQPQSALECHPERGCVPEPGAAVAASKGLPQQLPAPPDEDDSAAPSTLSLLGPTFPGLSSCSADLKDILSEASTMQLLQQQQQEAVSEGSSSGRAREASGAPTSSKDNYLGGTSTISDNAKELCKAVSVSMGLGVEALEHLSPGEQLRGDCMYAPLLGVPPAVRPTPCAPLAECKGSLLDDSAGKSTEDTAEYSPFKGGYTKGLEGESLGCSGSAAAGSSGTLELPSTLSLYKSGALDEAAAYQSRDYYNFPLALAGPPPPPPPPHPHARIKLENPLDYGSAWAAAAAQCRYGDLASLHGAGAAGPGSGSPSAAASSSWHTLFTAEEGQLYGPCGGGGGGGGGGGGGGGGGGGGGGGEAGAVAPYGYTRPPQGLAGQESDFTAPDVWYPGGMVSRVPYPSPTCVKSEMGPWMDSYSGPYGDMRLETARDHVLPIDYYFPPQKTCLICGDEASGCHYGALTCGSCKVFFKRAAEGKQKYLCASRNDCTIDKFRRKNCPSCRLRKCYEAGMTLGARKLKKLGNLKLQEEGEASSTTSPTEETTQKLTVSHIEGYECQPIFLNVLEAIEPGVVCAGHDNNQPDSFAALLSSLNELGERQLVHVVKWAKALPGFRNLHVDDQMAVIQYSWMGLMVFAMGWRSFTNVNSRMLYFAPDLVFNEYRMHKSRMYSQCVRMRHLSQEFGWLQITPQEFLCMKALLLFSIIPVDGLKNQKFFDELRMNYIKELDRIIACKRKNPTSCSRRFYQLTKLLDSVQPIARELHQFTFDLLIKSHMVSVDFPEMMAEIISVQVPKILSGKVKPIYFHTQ

Histone deacetylase 1 [1] = biological target: T2, Histone deacetylase 1 (Homo sapiens, UniProt Q13547); assay: Inhibition of purified human HDAC1 using Ac-Leu-Gly-(e-Ac)Lys-AMC by fluorometric HDAC assay
T2 sequence (Q13547 whole entry): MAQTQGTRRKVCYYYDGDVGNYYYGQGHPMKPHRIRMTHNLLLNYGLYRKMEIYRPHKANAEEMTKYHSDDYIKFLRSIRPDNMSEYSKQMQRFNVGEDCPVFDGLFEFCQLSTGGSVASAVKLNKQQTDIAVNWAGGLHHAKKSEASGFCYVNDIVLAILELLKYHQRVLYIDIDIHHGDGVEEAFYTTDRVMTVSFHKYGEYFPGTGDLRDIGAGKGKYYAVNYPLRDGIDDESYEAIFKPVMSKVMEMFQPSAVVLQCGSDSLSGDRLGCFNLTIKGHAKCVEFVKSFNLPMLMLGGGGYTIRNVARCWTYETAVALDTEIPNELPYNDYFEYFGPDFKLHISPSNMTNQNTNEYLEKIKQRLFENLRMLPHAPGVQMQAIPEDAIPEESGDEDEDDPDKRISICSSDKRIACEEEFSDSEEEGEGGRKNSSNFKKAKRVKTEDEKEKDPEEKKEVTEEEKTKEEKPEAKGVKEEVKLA

LNCaP [2] = assay: Antiproliferative activity against human LNCAP cells assessed as reduction in cell viability at 100 uM incubated for 5 days; format: functional, cell-based; conditions: time 5.0 day
[3] = Inhibition of purified human HDAC2 using Ac-Leu-Gly-(e-Ac)Lys-AMC by fluorometric HDAC assay
LNCaP [4] = assay: Antiproliferative activity against human LNCAP cells assessed as reduction in cell viability at 10 uM incubated for 72 hrs; format: functional, cell-based
PC-3 = assay: Antiproliferative activity against human PC-3 cells assessed as reduction in cell viability at 1 to 100 uM incubated for 72 hrs; format: functional, cell-based; conditions: dose 1-100 µM
[5] = Antiproliferative activity against human BHPrS cells assessed as reduction in cell viability at 1 to 100 uM incubated for 72 hrs; format: toxicity, cell-based; conditions: dose 1-100 µM
BPH-1 = assay: Antiproliferative activity against human BPH-1 cells assessed as reduction in cell viability at 1 to 100 uM incubated for 72 hrs; format: functional, cell-based; conditions: dose 1-100 µM
LNCaP [6] = assay: Antiproliferative activity against human LNCAP cells assessed as reduction in cell viability at 100 uM incubated for 72 hrs; format: functional, cell-based
Histone deacetylase 1 [7] = biological target: T2, Histone deacetylase 1; assay: Inhibition of purified human HDAC1 using Ac-Leu-Gly-(e-Ac)Lys-AMC pre-incubated for 18 hrs by fluorometric HDAC assay
[8] = biological target: Class 1 histone deacetylase (Homo sapiens) (UniProt Q13547+O15379+Q92769+Q9BY41); assay: Inhibition of type I nuclear HDACs in human LNCaP cells assessed as induction of histone H3 and H4 acetylation at 10 uM by Western blotting; format: cell-based
Sequence of Class 1 histone deacetylase (Homo sapiens) (O15379 whole entry, looked up): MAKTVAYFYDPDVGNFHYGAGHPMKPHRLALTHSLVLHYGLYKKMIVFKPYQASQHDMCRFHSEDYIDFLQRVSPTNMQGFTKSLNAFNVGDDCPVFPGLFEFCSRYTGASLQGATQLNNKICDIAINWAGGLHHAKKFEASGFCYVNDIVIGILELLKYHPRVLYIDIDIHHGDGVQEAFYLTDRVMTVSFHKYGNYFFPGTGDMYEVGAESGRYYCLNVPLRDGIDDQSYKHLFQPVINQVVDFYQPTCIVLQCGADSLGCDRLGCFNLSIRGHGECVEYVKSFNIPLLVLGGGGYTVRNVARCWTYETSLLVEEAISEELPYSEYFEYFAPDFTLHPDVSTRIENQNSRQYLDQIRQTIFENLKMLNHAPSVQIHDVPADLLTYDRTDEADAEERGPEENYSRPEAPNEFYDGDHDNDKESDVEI
Sequence of Class 1 histone deacetylase (Homo sapiens) (Q13547 whole entry, looked up): as the sequence (Q13547 whole entry) above
Sequence of Class 1 histone deacetylase (Homo sapiens) (Q92769 whole entry, looked up): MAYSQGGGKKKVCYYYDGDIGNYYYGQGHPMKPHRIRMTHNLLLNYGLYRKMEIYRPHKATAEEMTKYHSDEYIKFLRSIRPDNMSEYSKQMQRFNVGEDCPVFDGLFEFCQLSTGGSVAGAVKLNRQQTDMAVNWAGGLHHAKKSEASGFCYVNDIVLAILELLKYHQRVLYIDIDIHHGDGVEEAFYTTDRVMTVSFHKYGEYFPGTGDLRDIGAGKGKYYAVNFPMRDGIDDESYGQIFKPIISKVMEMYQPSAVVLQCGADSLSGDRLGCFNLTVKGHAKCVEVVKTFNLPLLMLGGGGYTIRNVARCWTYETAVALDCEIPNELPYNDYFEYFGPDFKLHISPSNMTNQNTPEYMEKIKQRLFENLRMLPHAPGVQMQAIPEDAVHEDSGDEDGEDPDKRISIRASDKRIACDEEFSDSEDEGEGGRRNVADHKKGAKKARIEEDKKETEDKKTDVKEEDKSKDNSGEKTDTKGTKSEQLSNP
Sequence of Class 1 histone deacetylase (Homo sapiens) (Q9BY41 whole entry, looked up): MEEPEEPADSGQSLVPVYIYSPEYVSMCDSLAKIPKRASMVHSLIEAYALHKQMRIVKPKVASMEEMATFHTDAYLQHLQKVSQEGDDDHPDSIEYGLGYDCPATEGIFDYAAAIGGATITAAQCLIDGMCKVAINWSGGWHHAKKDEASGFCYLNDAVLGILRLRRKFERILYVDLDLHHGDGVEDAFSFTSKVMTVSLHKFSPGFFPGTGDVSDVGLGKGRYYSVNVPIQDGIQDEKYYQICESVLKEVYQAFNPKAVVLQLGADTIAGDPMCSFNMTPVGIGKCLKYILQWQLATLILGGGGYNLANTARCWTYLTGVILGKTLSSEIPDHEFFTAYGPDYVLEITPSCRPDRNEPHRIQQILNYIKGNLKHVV

LNCaP [9] = assay: Antiproliferative activity against human LNCAP cells assessed as reduction in cell viability at 10 uM incubated for 5 days; format: functional, cell-based; conditions: time 5.0 day

Row | SMILES | IC50 (Androgen receptor) | IC50 (Histone deacetylase 1 [1]) | Activity (LNCaP [2]) | further results
1 | CC1(C)C(=O)N(c2ccc(C#N)c(C(F)(F)F)c2)C(=S)N1c1ccc(C(=O)Nc2cc(-c3ccccc3)ccc2N)nc1 | > 10000 nM | > 1000 µM |  | 
2 | CC1(C)C(=O)N(c2ccc(C#N)c(C(F)(F)F)c2)C(=S)N1CCCC(=O)NO | 390 nM | 44.9 µM | Active | 
3 | Nc1ccccc1NC(=O)c1ccc(CNC(=O)OCc2cccnc2)cc1 [ENTINOSTAT] | > 10000 nM |  | Active | 
4 | CC1(C)C(=O)N(c2ccc(C#N)c(C(F)(F)F)c2)C(=S)N1Cc1ccc(C(=O)Nc2ccccc2N)cc1 | 280 nM | 1.04 µM |  | IC50 [3]: 1600 nM; Activity (LNCaP [4]): Active; Activity (PC-3): Active; Activity [5]: Non-Toxic; Activity (BPH-1): Active; Activity (LNCaP [6]): Active
5 | CC1(C)C(=O)N(c2ccc(C#N)c(C(F)(F)F)c2)C(=S)N1c1ccc(C(=O)Nc2cc(-c3ccccc3)ccc2N)cc1 | > 10000 nM |  |  | IC50 (Histone deacetylase 1 [7]): 5.96 µM
6 | CC1(C)C(=O)N(c2ccc(C#N)c(C(F)(F)F)c2)C(=S)N1CCCCCC(=O)NO | 1450 nM | 1.33 µM | Active | 
7 | CC1(C)C(=O)N(c2ccc(C#N)c(C(F)(F)F)c2)C(=S)N1c1ccc(C(=O)Nc2cc(-c3cccs3)ccc2N)cn1 | > 10000 nM | 11.1 µM |  | 
8 | CC1(C)C(=O)N(c2ccc(C#N)c(C(F)(F)F)c2)C(=S)N1c1ccc(C(=O)Nc2ccccc2N)cn1 | 2340 nM | 6.51 µM |  | 
9 | CC1(C)C(=O)N(c2ccc(C#N)c(C(F)(F)F)c2)C(=S)N1CCCCC(=O)NO | 1170 nM | 3.09 µM | Active | 
10 | CC1(C)C(=O)N(c2ccc(C#N)c(C(F)(F)F)c2)C(=S)N1c1ccc(C(=O)Nc2cc(-c3cccs3)ccc2N)nc1 | > 10000 nM | 3.67 µM |  | 
11 | CC1(C)C(=O)N(c2ccc(C#N)c(C(F)(F)F)c2)C(=S)N1c1ccc(C(=O)Nc2ccccc2N)nc1 | 750 nM | 5.58 µM |  | 
12 | CC1(C)C(=O)N(c2ccc(C#N)c(C(F)(F)F)c2)C(=S)N1c1ccc(C(=O)Nc2ccccc2N)c(F)c1 | 1700 nM | 2.86 µM |  | IC50 [3]: 2500 nM
13 | CC1(C)C(=O)N(c2ccc(C#N)c(C(F)(F)F)c2)C(=S)N1c1ccc(C(=O)Nc2ccccc2N)cc1 | 980 nM | 1.33 µM | Active | inhibition [8]: Active; Activity (LNCaP [4]): Active; Activity (PC-3): Active; Activity [5]: Non-Toxic; Activity (LNCaP [9]): Active; Activity (BPH-1): Active; Activity (LNCaP [6]): Active
14 | CC1(C)C(=O)N(c2ccc(C#N)c(C(F)(F)F)c2)C(=S)N1CCCCCCC(=O)NO | 390 nM | 0.99 µM | Active | 
15 | CC1(C)C(=O)N(c2ccc(C#N)c(C(F)(F)F)c2)C(=S)N1c1ccc(C(=O)Nc2cc(-c3ccccc3)ccc2N)cn1 | > 10000 nM | 2.39 µM |  | 
16 | CC1(C)C(=O)N(c2ccc(C#N)c(C(F)(F)F)c2)C(=S)N1C12CC(CC(=O)Nc3ccccc3N)(C1)C2 | 190 nM | > 1000 µM |  | 

— ChEMBL document CHEMBL5143530 (Bioorg Med Chem Lett, 2022)
